Data as given in ChEMBL document CHEMBL6096654, “Allosteric inhibition of PTP1B by bromocatechol-chalcone derivatives” (Eur J Med Chem, 2025).

Tests used:
[1] = target: T1, Tyrosine-protein phosphatase non-receptor type 1 (Homo sapiens, UniProt P18031); experiment: Allosteric inhibition of PTP1B (unknown origin) using pNPP as substrate incubated for 30 mins by spectrophotometry
T1 sequence (P18031 whole entry): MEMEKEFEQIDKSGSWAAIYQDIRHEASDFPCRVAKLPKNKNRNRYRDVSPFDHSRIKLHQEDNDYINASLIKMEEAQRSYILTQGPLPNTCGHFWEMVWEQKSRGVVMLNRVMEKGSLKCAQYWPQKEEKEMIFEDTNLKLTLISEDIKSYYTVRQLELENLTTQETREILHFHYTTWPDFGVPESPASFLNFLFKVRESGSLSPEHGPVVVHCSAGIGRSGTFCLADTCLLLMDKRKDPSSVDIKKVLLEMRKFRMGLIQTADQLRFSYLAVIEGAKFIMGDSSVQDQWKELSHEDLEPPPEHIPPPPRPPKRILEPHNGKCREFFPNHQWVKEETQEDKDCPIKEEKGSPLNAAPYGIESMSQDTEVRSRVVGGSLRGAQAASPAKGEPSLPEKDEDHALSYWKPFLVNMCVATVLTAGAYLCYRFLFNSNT

[2] = Inhibition of PTP1B N193A/K197A mutant (unknown origin) using pNPP as substrate incubated for 30 mins by spectrophotometry; design: species or system Homo sapiens
[3] = target: T2, Tyrosine-protein phosphatase non-receptor type 2 (Homo sapiens, UniProt P17706); experiment: Inhibition of TCPTP (unknown origin) using pNPP as substrate incubated for 30 mins by spectrophotometry
T2 sequence (P17706 whole entry): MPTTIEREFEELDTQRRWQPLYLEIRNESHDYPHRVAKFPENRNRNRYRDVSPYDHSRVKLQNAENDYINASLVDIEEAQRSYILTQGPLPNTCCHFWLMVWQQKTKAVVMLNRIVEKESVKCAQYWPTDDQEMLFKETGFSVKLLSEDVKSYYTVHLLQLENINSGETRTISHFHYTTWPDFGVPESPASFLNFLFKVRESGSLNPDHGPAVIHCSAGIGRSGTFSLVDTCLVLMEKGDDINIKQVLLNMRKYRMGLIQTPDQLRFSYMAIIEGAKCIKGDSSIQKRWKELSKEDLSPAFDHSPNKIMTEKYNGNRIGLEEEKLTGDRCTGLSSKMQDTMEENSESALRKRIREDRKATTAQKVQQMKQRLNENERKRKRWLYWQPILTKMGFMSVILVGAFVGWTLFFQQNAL

[4] = target: T3, Tyrosine-protein phosphatase non-receptor type 11 (Homo sapiens, UniProt Q06124); experiment: Inhibition of SHP2 (unknown origin) using pNPP as substrate incubated for 30 mins by spectrophotometry
T3 sequence (Q06124 whole entry): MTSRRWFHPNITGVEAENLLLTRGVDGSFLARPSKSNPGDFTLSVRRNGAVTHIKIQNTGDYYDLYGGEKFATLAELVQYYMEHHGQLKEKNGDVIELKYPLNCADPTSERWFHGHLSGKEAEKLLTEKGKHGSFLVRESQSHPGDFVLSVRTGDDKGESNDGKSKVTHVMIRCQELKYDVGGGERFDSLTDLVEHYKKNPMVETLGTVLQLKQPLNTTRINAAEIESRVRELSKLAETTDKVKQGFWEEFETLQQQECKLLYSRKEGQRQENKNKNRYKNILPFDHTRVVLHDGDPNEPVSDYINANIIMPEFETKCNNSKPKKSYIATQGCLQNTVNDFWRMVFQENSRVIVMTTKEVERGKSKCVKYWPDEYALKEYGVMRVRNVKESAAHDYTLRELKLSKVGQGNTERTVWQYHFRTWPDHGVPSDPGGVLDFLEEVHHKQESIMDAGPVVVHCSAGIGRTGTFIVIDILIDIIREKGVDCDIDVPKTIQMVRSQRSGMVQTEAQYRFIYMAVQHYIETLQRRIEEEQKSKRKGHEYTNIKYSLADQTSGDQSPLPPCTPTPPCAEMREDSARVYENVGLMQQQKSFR

SMILES	IC50 [1]	IC50 [2]	IC50 [3]	IC50 [4]
Cc1ccccc1C(=O)/C=C/c1cc(O)c(O)c(Br)c1Br	1.71 µM	8.01 µM	9.4 µM	> 20 µM
O=C(/C=C/c1cc(O)c(O)c(Br)c1Br)c1cccc(C(F)(F)F)c1	3.59 µM	15.7 µM	13.6 µM	> 20 µM
CCOc1ccc(C(=O)/C=C/c2cc(O)c(O)c(Br)c2Br)cc1	3.25 µM	9.18 µM	17.3 µM	> 20 µM
Cc1ccc(C(=O)/C=C/c2cc(O)c(O)c(Br)c2Br)cc1	2 µM	10.2 µM	10.3 µM	> 20 µM
O=C(/C=C/c1cc(O)c(O)c(Br)c1Br)c1ccc(Cl)c(Cl)c1	3.02 µM	11.4 µM	16 µM	> 20 µM
COc1ccc(C(=O)/C=C/c2cc(O)c(O)c(Br)c2)cc1Br	2.45 µM	9.07 µM	13.4 µM	> 20 µM
O=C(/C=C/c1cc(O)c(O)c(Br)c1Br)c1cccc(Cl)c1	2.59 µM	12.7 µM	8.97 µM	> 20 µM
O=C(/C=C/c1cc(O)c(O)c(Br)c1Br)c1ccccc1Cl	2.17 µM	10.5 µM	5.74 µM	> 20 µM
O=C(/C=C/c1cc(O)c(O)c(Br)c1Br)c1ccc(Cl)cc1	2.15 µM	12.6 µM	9.7 µM	> 20 µM
COc1ccc(C(=O)/C=C/c2cc(O)c(O)c(Br)c2Br)cc1Br	1.43 µM	9.11 µM	3.74 µM	> 20 µM
O=C(/C=C/c1cc(O)c(O)c(Br)c1)c1cc(Br)c(O)c(Br)c1	2.54 µM	12.6 µM	15 µM	> 20 µM
